14 compounds from paper PMC3985256, “Synthesis of Brominated 2-Phenitidine Derivatives as Valuable Inhibitors of Cholinesterases for the Treatment of Alzheimer’s Disease” (Iranian Journal of Pharmaceutical Research : IJPR, 2014) can be followed below.

The IC50 is the concentration at which inhibition is half-maximal. As a reminder, the inhibition is the drop in the measured response relative to a control, in per cent.

Like-named read-outs stand apart in the source and are kept apart here. A value given as a limit tells only on which side of the number the result lay.

What all share (format): biochemical
One assay concerns the target T1, lipoxygenase (LOX) (Glycine max, UniProt P08170).
T1 sequence (P08170 1-839): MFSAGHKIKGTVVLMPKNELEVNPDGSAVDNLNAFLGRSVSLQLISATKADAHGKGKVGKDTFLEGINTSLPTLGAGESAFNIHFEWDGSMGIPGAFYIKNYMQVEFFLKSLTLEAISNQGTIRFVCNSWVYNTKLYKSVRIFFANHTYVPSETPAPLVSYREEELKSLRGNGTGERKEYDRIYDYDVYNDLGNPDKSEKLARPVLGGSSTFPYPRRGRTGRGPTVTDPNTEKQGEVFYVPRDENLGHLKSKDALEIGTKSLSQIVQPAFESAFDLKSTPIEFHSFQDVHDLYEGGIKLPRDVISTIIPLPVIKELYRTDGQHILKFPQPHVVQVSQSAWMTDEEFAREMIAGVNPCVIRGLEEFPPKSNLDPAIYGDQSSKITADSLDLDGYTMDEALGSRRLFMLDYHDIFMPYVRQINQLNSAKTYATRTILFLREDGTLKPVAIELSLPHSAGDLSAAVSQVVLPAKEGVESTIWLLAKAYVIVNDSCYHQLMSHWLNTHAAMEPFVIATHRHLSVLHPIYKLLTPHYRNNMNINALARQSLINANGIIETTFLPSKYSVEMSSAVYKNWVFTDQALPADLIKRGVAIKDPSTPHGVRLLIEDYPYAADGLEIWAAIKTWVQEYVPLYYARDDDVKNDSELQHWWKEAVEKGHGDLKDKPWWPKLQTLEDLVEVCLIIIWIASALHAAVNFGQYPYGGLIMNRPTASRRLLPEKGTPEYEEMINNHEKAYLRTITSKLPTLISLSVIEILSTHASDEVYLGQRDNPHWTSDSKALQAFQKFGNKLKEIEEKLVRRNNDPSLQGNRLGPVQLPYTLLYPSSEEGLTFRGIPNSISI
Put plainly: Lipoxygenase inhibition assay. Conditions: n = 3, mean ± sem; for inhibition at 500 µM: 0.5 mM. The method, then:
Lipoxygenase activity was assayed according to the reported method ([18]-[20]) but with slight modifications. A total volume of 200 μL assay mixture contained 150 μL sodium phosphate buffer (100 mM, pH 8.0), 10 μL test compound and 15 μL purified lipoxygenase enzyme (Sigma, USA). The contents were mixed and pre-read at 234 nm and pre-incubated for 10 min at 25 °C. The reaction was initiated by the addition of 25 μL substrate solution. The change in absorbance was observed after 6 min at 234 nm. Synergy HT (BioTek, USA) 96-well plate reader was used in all experiments. All reactions were performed in triplicates. The positive and negative controls were included in the assay. Baicalein (0.5 mM well^-1) was used as a positive control. The percentage inhibition was calculated by formula as follows.

In assay [1] the target is acetylcholinesterase (AChE) (Homo sapiens, UniProt P22303). Put plainly: Acetylcholinesterase inhibition assay. Conditions: for inhibition at 500 µM: read-out: Acetylcholinestrase (AChE) inhibition (%) at 0.5 mM. The procedure: The AChE inhibition activity was performed according to the reported method ([14]) with slight modifications. Total volume of the reaction mixture was 100 μL. It contained 60 μL Na2HPO4 buffer with concentration of 50 mM and pH 7.7. Ten μL test compound (0.5 mM well^-1) was added, followed by the addition of 10 μL (0.005 unit well^-1) enzyme. The contents were mixed and pre-read at 405 nm. Then contents were pre-incubated for 10 min at 37 °C. The reaction was initiated by the addition of 10 μL of 0.5 mM well^-1 substrate (acetylthiocholine iodide), followed by the addition of 10 μL DTNB (0.5 mM well^-1). After 15 min of incubation at 37 °C, absorbance was measured at 405 nm. Synergy HT (BioTek, USA) 96-well plate reader was used in all experiments. All experiments were carried out with their respective controls in triplicate. […] The percent inhibition was calculated by the help of following equation )[19] (.
(§1) Inhibition %=Control-Test/Control×100
(§2) IC50 values (concentration at which there is 50% enzyme inhibition) of compounds were calculated using EZ-Fit Enzyme kinetics software (Perella Scientific Inc. Amherst, USA).

In assay [2] the target is butyrylcholinesterase (BChE) (Homo sapiens, UniProt P06276). The experiment in a line: Butyrylcholinesterase inhibition assay. Conditions: for inhibition at 500 µM: read-out: Butyrylcholinesterase (BChE) inhibition (%) at 0.5 mM. The method, then: The BChE inhibition activity was performed according to the reported method ([14],[17]) with slight modifications. Total volume of the reaction mixture was 100 μL containing 60 μL, Na2HPO4 buffer, 50 mM and pH 7.7. Ten μL test compound 0.5 mM well^-1, followed by the addition of 10 μL (0. 5 unit well^-1) BChE. The contents were mixed and pre-read at 405 nm. Then contents were pre-incubated for 10 min at 37 °C. The reaction was initiated by the addition of 10 μL of 0.5 mM well^-1 substrate (butyrylthiocholine bromide), followed by the addition of 10 μL DTNB (0.5 mM well^-1). After 15 min of incubation at 37 °C, absorbance was measured at 405 nm. Synergy HT (BioTek, USA) 96-well plate reader was used in all experiments. All experiments were carried out with their respective controls in triplicate. […] The percent inhibition was calculated by the help of following equation.
as §1, §2

Where [3] appears, read: n = 3, mean ± sem, read-out: Butyrylcholinesterase (BChE) (IC50).
The mark [4] stands for this setting: n = 3, mean ± sem, read-out: Acetylcholinestrase (AChE) (IC50).

Sequence of acetylcholinesterase (AChE) (P22303 32-614): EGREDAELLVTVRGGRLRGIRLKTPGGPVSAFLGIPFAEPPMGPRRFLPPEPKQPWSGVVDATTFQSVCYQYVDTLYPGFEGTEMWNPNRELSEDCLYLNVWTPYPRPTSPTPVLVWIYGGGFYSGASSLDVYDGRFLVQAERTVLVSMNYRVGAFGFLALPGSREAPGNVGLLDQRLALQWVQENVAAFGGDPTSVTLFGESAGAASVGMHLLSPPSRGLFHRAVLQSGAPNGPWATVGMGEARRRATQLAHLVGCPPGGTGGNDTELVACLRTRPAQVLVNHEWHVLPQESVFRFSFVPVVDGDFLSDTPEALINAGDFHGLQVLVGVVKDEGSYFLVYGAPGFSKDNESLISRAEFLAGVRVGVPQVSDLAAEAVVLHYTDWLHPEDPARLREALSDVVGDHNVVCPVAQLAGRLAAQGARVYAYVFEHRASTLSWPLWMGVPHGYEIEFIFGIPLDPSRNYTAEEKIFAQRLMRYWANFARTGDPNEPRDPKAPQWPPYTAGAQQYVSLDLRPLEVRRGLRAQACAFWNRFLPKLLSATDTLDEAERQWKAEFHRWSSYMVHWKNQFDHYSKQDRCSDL
Sequence of butyrylcholinesterase (BChE) (P06276 29-602): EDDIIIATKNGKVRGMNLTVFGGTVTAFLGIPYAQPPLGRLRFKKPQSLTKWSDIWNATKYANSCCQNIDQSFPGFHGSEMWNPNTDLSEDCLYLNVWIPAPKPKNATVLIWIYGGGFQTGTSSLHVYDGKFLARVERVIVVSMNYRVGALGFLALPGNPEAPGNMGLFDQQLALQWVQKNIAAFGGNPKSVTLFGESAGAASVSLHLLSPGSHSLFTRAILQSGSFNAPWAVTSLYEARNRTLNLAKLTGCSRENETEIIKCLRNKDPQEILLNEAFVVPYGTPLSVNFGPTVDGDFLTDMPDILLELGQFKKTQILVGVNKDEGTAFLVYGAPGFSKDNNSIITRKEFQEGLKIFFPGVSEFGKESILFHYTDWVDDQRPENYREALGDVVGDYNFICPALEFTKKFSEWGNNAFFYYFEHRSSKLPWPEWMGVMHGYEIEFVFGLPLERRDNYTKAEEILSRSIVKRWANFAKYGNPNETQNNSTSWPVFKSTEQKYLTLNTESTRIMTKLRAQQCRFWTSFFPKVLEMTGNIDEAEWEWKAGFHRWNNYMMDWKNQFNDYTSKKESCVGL

In the case of `O=c1cc(-c2ccccc2)oc2cc(O)c(O)c(O)c12` [Baicalein, reference compound], on lipoxygenase (LOX), the half-maximal inhibitory concentration (IC50) came to 22.4 ± 1.3 µM.

Take `CCOc1cc(Br)c(Br)cc1NS(=O)(=O)c1ccccc1` [Compound 4, N-(4,5-dibromo-2-ethoxyphenyl)benzenesulfonamide]: the inhibition at 500 µM worked out at 44.15 ± 0.19% in assay [1] (0.5 mM, n = 3, mean ± sem); 80.75 ± 0.17% in assay [2] (0.5 mM, n = 3, mean ± sem); 11.6 ± 0.27% on lipoxygenase (LOX). For the same compound, the “Acetylcholinestrase (AChE) (IC50)” value in assay [1] (n = 3, mean ± sem) is recorded as “NIL”. For the same compound, the half-maximal inhibitory concentration (IC50) in assay [2] (setting [3]) is 70.21 ± 0.18 µM. The “Lipoxygenase (LOX) (IC50)” value at lipoxygenase (LOX) is given as “NIL”.

As to `CCOc1cc(Br)c(Br)cc1N(CC)S(=O)(=O)c1ccccc1` [Compound 6a, N-Ethyl-N-(4,5-dibromo-2-ethoxyphenyl)benzenesulfonamide], the inhibition at 500 µM in assay [1] (0.5 mM, n = 3, mean ± sem) came to 28.9 ± 0.31%; in assay [2] (0.5 mM, n = 3, mean ± sem), 85.33 ± 0.26%; at lipoxygenase (LOX) it was 81.75 ± 0.71%. The “Acetylcholinestrase (AChE) (IC50)” value in assay [1] (n = 3, mean ± sem) was “NIL”. Also, the IC50 in assay [2] (setting [3]) is 54.9 ± 0.85 µM.

Turning to `CCOc1cc(Br)c(Br)cc1N(C(C)C)S(=O)(=O)c1ccccc1` [Compound 6b, N-Isopropyl -N-(4,5-dibromo-2-ethoxyphenyl)benzenesulfonamide], the inhibition at 500 µM was 79.07 ± 0.38% in assay [1] (0.5 mM, n = 3, mean ± sem); 56.57 ± 0.55% in assay [2] (0.5 mM, n = 3, mean ± sem); 83.54 ± 0.33% at lipoxygenase (LOX). Besides, the IC50 in assay [1] (setting [4]) was 87.31 ± 0.11 µM; in assay [2] (setting [3]), over 300 µM.

As to `C=CCN(c1cc(Br)c(Br)cc1OCC)S(=O)(=O)c1ccccc1` [Compound 6c, N-Allyl -N-(4,5-dibromo-2-ethoxyphenyl)benzenesulfonamide], the inhibition at 500 µM in assay [1] (0.5 mM, n = 3, mean ± sem) is 72.22 ± 0.55%; in assay [2] (0.5 mM, n = 3, mean ± sem), 80.75 ± 0.68%; at lipoxygenase (LOX) it was 66.26 ± 0.54%. In addition, the results for the half-maximal inhibitory concentration (IC50) in assay [1] (setting [4]) and in assay [2] (setting [3]) were 143.91 ± 0.08 µM and 68.41 ± 0.21 µM, respectively.

As for `CCOc1cc(Br)c(Br)cc1N(CCBr)S(=O)(=O)c1ccccc1` [Compound 6d], the figures for the IC50 in assay [1] and in assay [2] were 131.9 ± 0.16 µM and 45.31 ± 0.17 µM, respectively. Also, the values for the inhibition at 500 µM (in assay [1]; in assay [2]; at lipoxygenase (LOX)) were 73.21 ± 0.71%, 87.2 ± 0.96% and 83.95 ± 0.22%, respectively.

`CCOc1cc(Br)c(Br)cc1N(Cc1ccccc1)S(=O)(=O)c1ccccc1` [Compound 6e, N-Benzyl-N-(4,5-dibromo-2-ethoxyphenyl)benzenesulfonamide]: the inhibition at 500 µM was 79.27 ± 0.63% in assay [1] (0.5 mM, n = 3, mean ± sem); 85.92 ± 0.28% in assay [2] (0.5 mM, n = 3, mean ± sem); 31.29 ± 0.18% on lipoxygenase (LOX). In addition, the half-maximal inhibitory concentration (IC50) in assay [1] (setting [4]) came to 88.21 ± 0.17 µM; in assay [2] (setting [3]) it was 58.71 ± 0.08 µM. Also, the “Lipoxygenase (LOX) (IC50)” value on lipoxygenase (LOX) is “NIL”.

As for `CCOc1cc(Br)c(Br)cc1N(CCc1ccccc1)S(=O)(=O)c1ccccc1` [Compound 6f, N-Phenylethyl-N-(4,5-dibromo-2-ethoxyphenyl)benzenesulfonamide], the inhibition at 500 µM in assay [1] (0.5 mM, n = 3, mean ± sem) turned out to be 77.58 ± 0.66%; in assay [2] (0.5 mM, n = 3, mean ± sem), 88.73 ± 0.14%; at lipoxygenase (LOX) it was 90.02 ± 0.37%. In addition, the IC50 in assay [1] (setting [4]) came to 86.41 ± 0.51 µM; in assay [2] (setting [3]) it was 53.41 ± 0.51 µM.

`CCOc1cc(Br)c(Br)cc1N(CCCc1ccccc1)S(=O)(=O)c1ccccc1` [Compound 6g, N-Phenylpropyl-N-(4,5-dibromo-2-ethoxyphenyl)benzenesulfonamide]: the inhibition at 500 µM was found to be 77.18 ± 0.33% in assay [1] (0.5 mM, n = 3, mean ± sem); 90.14 ± 0.77% in assay [2] (0.5 mM, n = 3, mean ± sem); 75.21 ± 0.11% on lipoxygenase (LOX). The half-maximal inhibitory concentration (IC50) in assay [1] (setting [4]) turned out to be 158.41 ± 0.11 µM; in assay [2] (setting [3]) it was 57.5 ± 0.63 µM.

As for `CCOc1cc(Br)c(Br)cc1N(Cc1ccc(Br)cc1)S(=O)(=O)c1ccccc1` [Compound 6h], the inhibition at 500 µM is 74.31 ± 0.11% in assay [1] (0.5 mM, n = 3, mean ± sem); 87.91 ± 0.25% in assay [2] (0.5 mM, n = 3, mean ± sem); 37.04 ± 0.28% on lipoxygenase (LOX). In addition, the results for the IC50 in assay [1] (setting [4]) and in assay [2] (setting [3]) were 145.6 ± 0.21 µM and 60.11 ± 0.34 µM, respectively. On lipoxygenase (LOX), the “Lipoxygenase (LOX) (IC50)” value is on record as “NIL”.

Consider `CCOc1cc(Br)c(Br)cc1N(Cc1cccc(Cl)c1)S(=O)(=O)c1ccccc1` [Compound 6i], for which the inhibition at 500 µM was found to be 82.54 ± 0.36% in assay [1] (0.5 mM, n = 3, mean ± sem); 91.78 ± 0.33% in assay [2] (0.5 mM, n = 3, mean ± sem); 49.6 ± 0.64% at lipoxygenase (LOX). For the same compound, the 50% inhibitory concentration (IC50) was 73.9 ± 0.87 µM in assay [1] (setting [4]) and 57.11 ± 0.46 µM in assay [2] (setting [3]). Also, the “Lipoxygenase (LOX) (IC50)” value at lipoxygenase (LOX) is “NIL”.

Regarding `CCOc1cc(Br)c(Br)cc1N(Cc1ccc(F)cc1)S(=O)(=O)c1ccccc1` [Compound 6j], the inhibition at 500 µM in assay [1] (0.5 mM, n = 3, mean ± sem) was 81.45 ± 0.12%; in assay [2] (0.5 mM, n = 3, mean ± sem), 87.21 ± 0.31%; at lipoxygenase (LOX), 51.23 ± 0.31%. The IC50 in assay [1] (setting [4]) came to 71.31 ± 0.09 µM; in assay [2] (setting [3]), 60.2 ± 0.66 µM.

In the case of `CCOc1cc(Br)c(Br)cc1N(Cc1ccccc1Cl)S(=O)(=O)c1ccccc1` [Compound 6k], the inhibition at 500 µM worked out at 86.71 ± 0.22% in assay [1] (0.5 mM, n = 3, mean ± sem); 93.66 ± 0.82% in assay [2] (0.5 mM, n = 3, mean ± sem); 33.23 ± 0.22% at lipoxygenase (LOX). Also, the figures for the concentration for half-maximal inhibition (IC50) in assay [1] (setting [4]) and in assay [2] (setting [3]) were 52.41 ± 0.27 µM and 42.21 ± 0.25 µM, respectively. Besides, the “Lipoxygenase (LOX) (IC50)” value on lipoxygenase (LOX) was “NIL”.

Regarding `CCOc1cc(Br)c(Br)cc1N(Cc1ccc(Cl)cc1)S(=O)(=O)c1ccccc1` [Compound 6l], the inhibition at 500 µM in assay [1] (0.5 mM, n = 3, mean ± sem) was 82.94 ± 0.15%; in assay [2] (0.5 mM, n = 3, mean ± sem) it was 66.31 ± 0.11%; at lipoxygenase (LOX), 55.5 ± 0.84%. The concentration for half-maximal inhibition (IC50) in assay [1] (setting [4]) turned out to be 126.61 ± 0.02 µM; in assay [2] (setting [3]), 190.31 ± 0.17 µM.
